Data as given in PMC11653257, “Organometallic Half-Sandwich Complexes of 8-Hydroxyquinoline-Derived Mannich Bases with Enhanced Solubility: Targeting Multidrug Resistant Cancer” (Inorganic Chemistry, 2024).
≈ marks a conversion by molar mass, not a printed value. Read-outs that look alike come from different tables or passages of the source.

What was measured:
A431 = test system: A431; parameters: method as in earlier work; details: monoculture, 72 h, PrestoBlue; ref SI3; cited from earlier work
A431-B1 = test system: A431-B1; parameters: method as in earlier work; details: monoculture, ref SI3, cited from earlier work
MES-SA/Dx5 = details: monoculture, ref SI3, cited from earlier work
[1] = test system: Staphylococcus aureus (ATCC 25923); assay: Antibacterial MIC, S. aureus; type: cell-based; details: Staphylococcus aureus, ATCC25923; Mueller Hinton Broth, 37 °C, 18 h
Method: (§1) Escherichia coli (ATCC 25922) was used as Gram-negative strain and Staphylococcus aureus (ATCC 25923, methicillin-resistant (MRSA) ATCC 43300) strains were applied as Gram-positive bacterial cultures in the experiments. MIC values of the compounds were determined in 96-well plates based on the Clinical and Laboratory Standard Institute guidelines (CLSI guidelines).[76] The stock solutions of the compounds (same as those used for cytotoxicity experiments) were diluted in 100 μL of Mueller Hinton Broth. Then, 10^–4 dilution of an overnight bacterial culture in 100 μL of medium was added to each well, with the exception of the medium control wells.

[2] = test system: methicillin-resistant S. aureus (MRSA) ATCC 43300; assay: Antibacterial MIC, MRSA; type: cell-based, Staphylococcus aureus; details: Staphylococcus aureus; Mueller Hinton Broth, 37 °C, 18 h
Method: as §1

[3] = n-octanol/water distribution coefficient (shake-flask); type: physicochemical; details: n-octanol/buffered aqueous solution; n-octanol/H2O, pH 7.4; read-out: log D7.4
Method: The exchange of the coligand (H2O/Cl^–) changes the overall charge of the complex, thus affecting lipophilicity. […] The traditional shake-flask method was used to obtain distribution coefficients of the ligands as well as of the complexes in n-octanol/buffered aqueous solution (20 mM phosphate, pH = 7.4) at different chloride ion concentrations (4, 24, and 100 mM) using UV–vis spectrophotometry (Agilent Cary 8454 diode array spectrophotometer, Santa Clara, CA, USA) for the analysis. The compounds were dissolved in buffered aqueous solutions previously saturated with n-octanol. Then the aqueous and n-octanol phases were gently mixed in different volume ratios (using 1:60 for the ligands, 1:1 for the RhCp* and 1:2 for the RuCym complexes ratios of n-octanol to buffered aqueous solution volume) for 4 h, followed by phase separation. Then the UV–vis spectrum of the aqueous or n-octanol phase was recorded and compared to the reference spectrum. Stock solutions were made in the aqueous phase, and distribution coefficients (DpH) were calculated by the following equation: [drawing 3]

[4] = pKa of the ligands by UV–vis titration; type: physicochemical; details: for pKa: 0.20 M KNO3, UV–vis, I = 0.20 M KNO3, 10 equiv. EDTA
Method: (§2) Physico-chemical properties such as aqueous solubility, lipophilicity, and the actual protonation state at a given pH are known to influence the pharmacokinetic behavior of a drug.
An Agilent Cary 8454 diode array spectrophotometer was utilized to obtain UV–vis spectra in the wavelength range 190–1100 nm. The path length (l) was 1 or 2 cm in most cases (the actual l is always indicated in the legends of the figures). The concentrations of the ligands and complexes were between 36 and 100 μM. The ligands were titrated in the presence of 10 equiv of EDTA. Individual samples contained 0–37 μM HSA, 0–206 μM MIM, 0–759 μM AHA, or 0–733 μM FHA. Spectra were always background and baseline corrected. The computer program HypSpec[64] was used to obtain stability constants.

[5] = pKa of the ligands by 1H NMR titration; type: physicochemical; details: 0.20 M KNO3 with 10% (v/v) D2O, I = 0.20 M KNO3, 25.0 °C, read-out: pKa (OH)
Method: as §2
Bruker Avance III HD Ascend 500 Plus instrument (Billerica, MA, USA) was used for NMR studies. ^1H NMR spectroscopic measurements were carried out with a WATERGATE water suppression pulse scheme in the presence of 10% (v/v) D2O in most cases. DSS internal standard was added to samples to obtain reference peaks. ^1H NMR titrations were carried out in the presence of 0.20 M KNO3. The computer program HypSpec[64] was used to obtain equilibrium constants.

[6] = Thermodynamic aqueous solubility at pH 7.4; type: physicochemical; details: 10 mM HEPES buffer, thermodynamic from solid, pH 7.4 (10 mM HEPES), 25.0 °C, read-out: thermodynamic aqueous solubility S7.4
Method: The concentration of the compounds was determined by UV–vis spectrophotometry. For calibration, stock solutions of the compounds were used with known concentrations dissolved in 100% DMSO, 75% DMSO, and 50% (v/v) DMSO/buffered aqueous solutions.

[7] = test system: Escherichia coli (ATCC 25922); assay: Antibacterial MIC, E. coli; type: cell-based; details: Escherichia coli, ATCC25922; Mueller Hinton Broth, 37 °C, 18 h
Method: as §1

MES-SA = details: monoculture, PrestoBlue; ref SI3; cited from earlier work
[8] = biological target: human serum albumin (HSA), Trp214 / site I (Homo sapiens, UniProt P02768); assay: HSA Trp214 fluorescence quenching
Sequence of human serum albumin (HSA), Trp214 / site I (P02768 25-609): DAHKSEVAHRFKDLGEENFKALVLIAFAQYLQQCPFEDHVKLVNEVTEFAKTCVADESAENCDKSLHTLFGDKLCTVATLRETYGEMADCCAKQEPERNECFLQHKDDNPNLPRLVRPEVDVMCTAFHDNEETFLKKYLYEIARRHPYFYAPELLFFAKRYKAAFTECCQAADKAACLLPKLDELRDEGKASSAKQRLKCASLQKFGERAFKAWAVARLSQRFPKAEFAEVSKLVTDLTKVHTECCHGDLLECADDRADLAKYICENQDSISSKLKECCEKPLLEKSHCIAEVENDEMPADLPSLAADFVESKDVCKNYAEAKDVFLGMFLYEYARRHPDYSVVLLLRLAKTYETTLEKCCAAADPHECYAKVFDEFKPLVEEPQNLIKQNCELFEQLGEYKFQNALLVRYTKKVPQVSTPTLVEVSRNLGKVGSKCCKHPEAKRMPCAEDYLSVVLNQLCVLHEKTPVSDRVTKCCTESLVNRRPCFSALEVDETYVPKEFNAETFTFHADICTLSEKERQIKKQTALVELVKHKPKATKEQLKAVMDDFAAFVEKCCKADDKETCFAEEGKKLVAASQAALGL
Method: (§3) Next, spectrofluorometric measurements were also performed to gain insight into the binding interactions that may occur in the hydrophobic binding sites of HSA. Tryptophan (Trp214) quenching experiments were conducted for the complexes (1–4) (for complex (3) see Figure S31) and their ligands). […] To monitor the binding at site II, site marker displacement experiments were performed using dansylglycine (DG).
(§4) Fluorescence measurements were carried out on a Fluoromax (Horiba Jobin Yvon, Longjumeau, France) spectrofluorometer using a 1 cm × 1 cm quartz cuvette. […] Excitation wavelengths were 295 nm for Trp-214 quenching and 340 nm for the DG displacement studies. The calculated conditional stability constants for HSA–complex species were obtained using the computer program HypSpec.[64] Calculations always were based on data obtained from at least two independent measurements.

Colo320 = assay: Cytotoxicity, Colo320; type: cell-based, human; details: this work
Text: Supplementary Information
(11 pictures or pasted objects on this page, not shown here)

[9] = biological target: human serum albumin (HSA), site II (Homo sapiens, UniProt P02768); assay: HSA dansylglycine (DG) site marker displacement
Sequence of human serum albumin (HSA), site II (P02768 25-609): as above
Method: as §3, §4

[10] = pH 7.4, based on the pKa values

In the case of `Oc1c(CN2CCCC2)cc(Cl)c2cccnc12` [HQCl-pyr, 5-chloro-7-(pyrrolidin-1-ylmethyl)quinolin-8-ol], the IC50 (A431) is given as 7.45 ± 0.15 µM, the IC50 (A431-B1; 72 h, PrestoBlue) is given as 1.97 ± 0.25 µM and the “SR (A431 / A431-B1)” value (A431-B1) is given as 3.79. For the same molecule, the IC50 (MES-SA/Dx5; PrestoBlue) was 0.3 ± 0.06 µM, the “SR (MES-SA / MES-SA/Dx5)” value (MES-SA/Dx5; + 1 µM TQ) was 1.35 and the “SR (MES-SA / MES-SA/Dx5)” value (MES-SA/Dx5) was 11.53. For the same molecule, the MIC [1] was 50 µM (≈ 13.1 µg/mL), the MIC [2] was 50 µM (≈ 13.1 µg/mL) and the logD at 4 h [3] was 1.83. The pKa ([4]; read-out: pKa (Npyr/pipH+)) was 11.36 ± 0.1, the pKa ([4]; read-out: pKa (NqH+)) was < 2 and the pKa ([4]; read-out: pKa (OH)) was 7.53 ± 0.05. For the same molecule, the “fraction of H2L+” value [4, 10] was 51%, the “fraction of HL” value [4, 10] was 49% and the pKa [5] was 7.65 ± 0.02. For the same molecule, the solubility thermodynamic [6] was 516 ± 2 µM (≈ 136 µg/mL), the MIC [7] was 50 µM (≈ 13.1 µg/mL) and the IC50 (MES-SA) was 3.46 ± 0.51 µM. For the same molecule, the Kd [8] was 25.1 µM, the “SR (Colo205 / Colo320)” value (Colo320) was 2.0 and the Kd [9] was 12.6 µM.
